Reference: patent US12414953B2, “Selective inhibitors of protein arginine methyltransferase 5 (PRMT5)” (Prelude Therapeutics, Incorporated, priority 2019, dated 2025)

How the values were obtained:
U-87 MG cells = test: Cell proliferation assay (CCK-8, day 10); assay type: cell-based; details: Homo sapiens, 240 h, U-87 MG cell line, read-out: Prolif. IC50
Method: One day before experiment, Granta-519 cells were passaged to a density of 0.5×10^6 cells/ml. U-87 MG cells were trypsinized and 2,000 cells were seeded into 96-well plates and allowed to grow overnight. On the day of experiment (day 0), Granta-519 Cells were spun down at 1,500 rpm for 4 min, resuspended in fresh medium to 0.5×10^6 cells/ml and 190 μL of cells were added to 96 well plates. For U-87 MG cells, old medium was removed and replaced with 190 uL fresh medium. Compound working stocks were first diluted at 1:50 with fresh medium in 96 well plate and 10 μL of diluted drugs were added to 96 well plates containing cells and incubated for 3 days. DMSO was used a vehicle control.
One day 3, 50 μL of Granta-519 cells were transferred to a new 96-well plate and 140 uL fresh medium was added. […]
On day 10, 100 μL Granta-519 cells were transferred to a new 96 well plate and 10 μL of Cell Counting Kit-8 (CCK-8, Jojindo, CK04-13) solution was added. […] Plates were incubated in CO2 incubator for 2 hours (Granta-519 cells) or 30 min (U-87 MG cells) and OD450 values were measured with a microplate reader (iMark microplate reader, Bio-Rad). Percentage of viable cells, relative to DMSO vehicle control, were calculated and plotted in Graphpad Prism ([Inhibitor] vs. normalized response−Variable slope) to determine proliferation IC50 values on day 10. […]

[1] = Solubility of HCl salt in solvents, saturated solution analyzed by HPLC; assay type: physicochemical; details: thermodynamic from solid; for solubility: 21 °C, 21 ± 1° C.; for solubility at 24 hr: 50 °C, 50 ± 1° C.
Method: (§1) 3 mL of the tested solvent was added to a 4 mL of vial. Formula IA was added until a cloudy solution was obtained at 21±1° C. About 30 mg additional Formula IA was added to the cloudy solution. The mixture was agitated at 21±1° C. for a weekend, during which the temperature was controlled by IKA® ETS-D5 temperature controller and IKA® RCT basic safety control. The mixture was filtered using a syringe filter (PTFE, […], 13 mm, Agela Technologies Inc.). The satuatred solution was transferred into an HPLC vial, diluted with methanol, and analyzed by HPLC.
as §1, with “2 mL” for “3 mL”, “at 50±1°” for “at 21±1°”, “for 24 hr,” for “for a weekend,”, “The saturated” for “The satuatred”

[2] = organic solvent or mixture, EtOAc
[3] = organic solvent or mixture, EtOH
[4] = organic solvent or mixture, IPA
[5] = organic solvent or mixture, IPAc
[6] = organic solvent or mixture, MeCN
[7] = organic solvent or mixture, Methanol

SMILES: Cc1ncnc2c1ccn2[C@@H]1O[C@H]([C@@H]2OCCc3cc(Cl)ccc32)[C@@H](O)[C@H]1O [Formula I, (2S,3S,4R,5R)-2-((R)-6-chloroisochroman-1-yl)-5-(4-methyl-7H-pyrrolo[2,3-d]pyrimidin-7-yl)tetrahydrofuran-3,4-diol]
- IC50 (U-87 MG cells): 54 nM

SMILES: Cc1ncnc2c1ccn2[C@@H]1O[C@H]([C@@H]2OCCc3cc(Cl)ccc32)[C@@H](O)[C@H]1O [Formula IA, (2S,3S,4R,5R)-2-((R)-6-chloroisochroman-1-yl)-5-(4-methyl-7H-pyrrolo[2,3-d]pyrimidin-7-yl)tetrahydrofuran-3,4-diol]
- solubility [1, 2]: 120 µg/mL
- solubility [1, 3]: 7640 µg/mL
- solubility [1, 4]: 960 µg/mL
- solubility [1, 5]: 160 µg/mL
- solubility [1, 6]: 690 µg/mL
- solubility [1, 7]: > 50000 µg/mL
- solubility ([1]; Water): 14700 µg/mL
- solubility at 24 hr [1, 2]: 160 µg/mL
- solubility at 24 hr [1, 3]: 10800 µg/mL
- solubility at 24 hr [1, 4]: 1990 µg/mL
- solubility at 24 hr [1, 5]: 240 µg/mL
- solubility at 24 hr [1, 6]: 1050 µg/mL
- solubility at 24 hr [1, 7]: > 50000 µg/mL
- solubility at 24 hr ([1]; Water): 43800 µg/mL
